Results reported in PMC9101642 (Molecules, 2022).
Like-named read-outs stand apart in the source and are kept apart here. Marks after values point to notes of the source that are not given here.

How the values were obtained:
ERα [1] = biological target: T1, ERα (Homo sapiens, UniProt P03372); assay: Fluorescence polarization competition assay: antagonistic potency and relative binding affinity; details: for logRBA ERα: log of % relative binding affinity, estradiol = 100%
T1 sequence (P03372 1-595): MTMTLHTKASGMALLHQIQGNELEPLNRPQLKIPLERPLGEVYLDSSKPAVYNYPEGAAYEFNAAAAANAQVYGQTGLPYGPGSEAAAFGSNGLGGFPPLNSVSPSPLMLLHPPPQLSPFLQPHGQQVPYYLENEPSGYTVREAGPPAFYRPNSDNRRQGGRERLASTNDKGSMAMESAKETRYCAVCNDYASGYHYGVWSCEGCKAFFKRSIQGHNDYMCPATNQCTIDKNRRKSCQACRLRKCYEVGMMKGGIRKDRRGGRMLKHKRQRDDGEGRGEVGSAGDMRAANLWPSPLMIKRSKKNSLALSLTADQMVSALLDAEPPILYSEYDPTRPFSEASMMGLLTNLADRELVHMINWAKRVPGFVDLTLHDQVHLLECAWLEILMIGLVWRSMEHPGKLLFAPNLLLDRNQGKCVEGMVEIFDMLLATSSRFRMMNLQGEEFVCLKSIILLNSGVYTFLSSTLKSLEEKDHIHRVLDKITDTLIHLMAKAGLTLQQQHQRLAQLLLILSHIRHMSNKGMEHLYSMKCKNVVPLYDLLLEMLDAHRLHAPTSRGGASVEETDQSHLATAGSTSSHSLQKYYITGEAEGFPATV

ERβ = ERβ (Homo sapiens, UniProt Q92731); assay: as above; details: for logRBA ERβ: log of % relative binding affinity, estradiol = 100%
MCF-7 cell lines = assay: MTT antiproliferative assay; format: cell-based, human; details: for IC50: Homo sapiens, MCF7, growth inhibition, 48 h, read-out: MCF-7 (IC50 nM); for SI: selectivity index [IC50(MDA-MB-231)]/[IC50(MCF-7)]
MDA-MB-231 cell lines = assay: MTT antiproliferative assay; format: cell-based, human; details: Homo sapiens, MDA-MB-231; growth inhibition, 48 h; read-out: MDA-MB-231 (IC50 nM)
[2] = tested on: Ishikawa endometrial adenocarcinoma cells; assay: Antiproliferative assay; format: cell-based; details: Homo sapiens, growth inhibition
Excerpt: As SERMs profile is often associated with the stimulation of endometrial cell proliferation and an increase in the incidence of endometrial cancer (EC), the herein compounds were therefore evaluated against Ishikawa endometrial adenocarcinoma cells (Table 8, Supplementary Material Figures […]). […] However, future experimental elaboration, currently beyond the authors' experimental facilities, is required to confirm compounds' promising profiles in terms of no EC induction.

ERα [3] = biological target: T1, ERα; assay: ERα down-regulation immunofluorescence assay in MCF-7; format: cell-based
[4] = tested on: progesterone receptor (PR); assay: ERα functional antagonism cell assay (PR as biomarker) in MCF-7; format: cell-based; details: Homo sapiens, MCF7; progesterone receptor as biomarker for ERα antagonism in MCF-7
MCF-7 cells = assay: Cell cycle distribution by flow cytometry; format: cell-based, human; details: 24 h
[5] = MTT antiproliferative assay (neutral control); details: human
[6] = concentration that antagonizes 50% of ERα signaling activity, read-out: ERα (IC50 nM)
[7] = concentration that antagonizes 50% of ERβ signaling activity, read-out: ERβ (IC50 nM)
[8] = ERα downregulation measured in MCF-7, read-out: MCF-7 DR (IC50 nM)
[9] = 1 nM as lower concentration (3DPQ-5, 3DPQ-6, 3DPQ-8)
[10] = calculated antagonistic (inhibitory) constant

ERβ, sequence (Q92731 whole entry): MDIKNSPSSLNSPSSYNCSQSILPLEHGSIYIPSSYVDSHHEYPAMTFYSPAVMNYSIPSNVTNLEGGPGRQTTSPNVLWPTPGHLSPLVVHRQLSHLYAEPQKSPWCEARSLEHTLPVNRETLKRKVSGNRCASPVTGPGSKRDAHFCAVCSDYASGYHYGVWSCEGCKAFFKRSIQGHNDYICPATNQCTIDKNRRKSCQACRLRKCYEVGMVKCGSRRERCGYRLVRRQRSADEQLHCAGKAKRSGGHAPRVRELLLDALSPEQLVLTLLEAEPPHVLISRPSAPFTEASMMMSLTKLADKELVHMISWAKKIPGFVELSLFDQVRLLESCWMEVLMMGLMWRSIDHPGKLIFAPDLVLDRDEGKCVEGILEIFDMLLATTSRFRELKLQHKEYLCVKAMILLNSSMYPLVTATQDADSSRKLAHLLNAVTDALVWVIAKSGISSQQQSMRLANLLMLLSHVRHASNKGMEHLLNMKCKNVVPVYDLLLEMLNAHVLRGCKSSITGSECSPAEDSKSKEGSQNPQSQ

In the case of `CC(=O)c1cc(C(=O)O[C@@H]2/C=C/C(=O)O[C@@H](O)CCC/C=C/[C@@H]3C[C@H](O)C[C@H]32)ccc1OCCN1CCCCC1` [Compound 3DPQ-10, (1R,2E,6R,10E,11aS,13S,14aR)-6,13-dihydroxy-4-oxo-4,6,7,8,9,11a,12,13,14,14a-decahydro-1H-cyclopenta[f][1]oxacyclotridecin-1-yl 3-acetyl-4-(2-(piperidin-1-yl)ethoxy)benzoate], the IC50 (ERα [1]) is reported as 0.77 ± 0.14 nM, the Ki (ERα [1]) is reported as 0.17 nM and the “logRBA ERα” value (ERα [1]) is reported as 2.06 ^‡. The “ERα potency, fold more potent than 4-OHT” value (ERα [1]; ratio of IC50 values) was 1.45 fold, the IC50 (ERβ) was 79.54 ± 0.76 nM and the Ki (ERβ) was 44.7 nM. For the same molecule, the “logRBA ERβ” value (ERβ) was 0.05 ^†,‡,§, the IC50 (MCF-7 cell lines) was 0.97 ± 0.34 nM and the SI (MCF-7 cell lines) was 42.27 ^‡,§. The IC50 (MDA-MB-231 cell lines) was 41.97 ± 0.32 nM, the IC50 [2] was 1.55 ± 0.42 nM and the IC50 (ERα [3]) was greater than 100 nM. For the same molecule, the IC50 [4] was greater than 100 nM, the “Cell Cycle (%) G0/G1” value (MCF-7 cells; 0.1 nM) was 71.96 ± 1.43 *^,†,‡,§ % and the “Cell Cycle (%) G2/M” value (MCF-7 cells; 0.1 nM) was 16.08 ± 1.56 *^,†,‡,§ %. The “Cell Cycle (%) S” value (MCF-7 cells; 0.1 nM) was 11.96 ± 2.41 *^,†,‡,§ %, the “Cell Cycle (%) G0/G1” value (MCF-7 cells; 1 nM) was 74.42 ± 2.12 *^,†,‡,§ % and the “Cell Cycle (%) G2/M” value (MCF-7 cells; 1 nM) was 12.92 ± 4.32 *^,†,‡,§ %. The “Cell Cycle (%) S” value (MCF-7 cells; 1 nM) was 12.67 ± 2.46 *^,†,‡,§ % and the IC50 at 48 h [5] was greater than 100 nM.

In the case of `CC(=O)c1cc(C(=O)O[C@@H]2/C=C/C(=O)O[C@@H](O)CCC/C=C/[C@@H]3C[C@H](O)C[C@H]32)ccc1OCCN1CCCC2CCCNC21` (stereo partly drawn) [Compound 3DPQ-8, (1R,2E,6R,10E,11aS,13S,14aR)-6,13-dihydroxy-4-oxo-4,6,7,8,9,11a,12,13,14,14a-decahydro-1H-cyclopenta[f][1]oxacyclotridecin-1-yl 3-acetyl-4-(2-(octahydro-1,8-naphthyridin-1(2H)-yl)ethoxy)benzoate], the Ki (ERα [1]; calculated antagonistic (inhibitory) constant, read-out: Ka ERα) is reported as 0.18 nM, the IC50 (ERα [1]; [6]) is reported as 0.81 ± 0.14 nM and the “logRBA ERα” value (ERα [1]) is reported as 2.04 ^‡. The “ERα potency, fold more potent than 4-OHT” value (ERα [1]; ratio of IC50 values) was 1.38 fold, the Ki (ERβ; calculated antagonistic (inhibitory) constant, read-out: Ka ERβ) was 40.6 nM and the IC50 (ERβ; [7]) was 72.3 ± 0.78 nM. For the same molecule, the “logRBA ERβ” value (ERβ) was 0.09 ^†,‡,§, the IC50 (MCF-7 cell lines) was 1.06 ± 0.45 nM and the SI (MCF-7 cell lines) was 40.15 ^‡,§. It also gave an IC50 (MDA-MB-231 cell lines) of 42.56 ± 0.35 nM, an IC50 [2] of 1.98 ± 0.32 nM and an IC50 (ERα [3]; [8]) greater than 100 nM. For the same molecule, the IC50 [4] was greater than 100 nM, the “Cell Cycle (%) G0/G1” value (MCF-7 cells; [9]) was 72.39 ± 1.43 *^,†,‡,§ % and the “Cell Cycle (%) G2/M” value (MCF-7 cells; [9]) was 15.11 ± 2.56 *^,†,‡,§ %. For the same molecule, the “Cell Cycle (%) S” value (MCF-7 cells; [9]) was 12.50 ± 1.22 *^,†,‡,§ %, the “Cell Cycle (%) G0/G1” value (MCF-7 cells; 10 nM (3DPQ-5, 3DPQ-6, 3DPQ-8)) was 74.85 ± 2.54 *^,†,‡,§ % and the “Cell Cycle (%) G2/M” value (MCF-7 cells; 10 nM (3DPQ-5, 3DPQ-6, 3DPQ-8)) was 11.95 ± 2.45 *^,†,‡,§ %. The “Cell Cycle (%) S” value (MCF-7 cells; 10 nM (3DPQ-5, 3DPQ-6, 3DPQ-8)) was 13.21 ± 2.15 *^,†,‡,§ % and the IC50 at 48 h [5] was greater than 100 nM.

With `CC(=O)c1cc(C(=O)O[C@@H]2/C=C/C(=O)O[C@@H](O)CCC/C=C/[C@@H]3C[C@H](O)C[C@H]32)ccc1OCCN1C=Cc2ccccc2C1` [Compound 3DPQ-7, (1R,2E,6R,10E,11aS,13S,14aR)-6,13-dihydroxy-4-oxo-4,6,7,8,9,11a,12,13,14,14a-decahydro-1H-cyclopenta[f][1]oxacyclotridecin-1-yl 3-acetyl-4-(2-(isoquinolin-2(1H)-yl)ethoxy)benzoate] the “Ka ERα (nM)” value (ERα [1]; [10]) was 0.14 ^†,‡ nM, the IC50 (ERα [1]; [6]) was 0.64 ± 0.13 nM and the “logRBA ERα” value (ERα [1]) was 2.14 ^†,‡. For the same molecule, the “ERα potency, fold higher than Ral” value (ERα [1]; ratio of IC50 values) was 1.16 fold, the “Ka ERβ (nM)” value (ERβ; [10]) was 40.64 ^†,‡,§ nM and the IC50 (ERβ; [7]) was 72.34 ± 0.17 nM. The “logRBA ERβ” value (ERβ) was 0.09 ^†,‡,§, the IC50 (MCF-7 cell lines) was 0.78 ± 0.52 nM and the “MCF-7 antiproliferative potency, fold higher than Ral” value (MCF-7 cell lines; ratio of IC50 values) was 1.14 fold. For the same molecule, the SI (MCF-7 cell lines) was 66.61 ^‡,§, the IC50 (MDA-MB-231 cell lines) was 52 ± 0.68 nM and the IC50 [2] was 1.74 ± 0.43 nM. The IC50 (ERα [3]; [8]) was greater than 100 nM, the IC50 [4] was greater than 100 nM and the “Cell Cycle (%) G0/G1” value (MCF-7 cells; 0.1 nM) was 73.25 ± 2.54 *^,†,‡,§ %. For the same molecule, the “Cell Cycle (%) G2/M” value (MCF-7 cells; 0.1 nM) was 12.69 ± 2.64 *^,†,‡,§ %, the “Cell Cycle (%) S” value (MCF-7 cells; 0.1 nM) was 14.06 ± 1.58 *^,†,‡,§ % and the “Cell Cycle (%) G0/G1” value (MCF-7 cells; 1 nM) was 75.71 ± 1.43 *^,†,‡,§ %. For the same molecule, the “Cell Cycle (%) G2/M” value (MCF-7 cells; 1 nM) was 9.53 ± 3.54 *^,†,‡,§ %, the “Cell Cycle (%) S” value (MCF-7 cells; 1 nM) was 14.77 ± 1.46 *^,†,‡,§ % and the IC50 at 48 h [5] was greater than 100 nM.
